The nature of data set [1]: Vitamin B12 absorption (plasma PK) after dosing Sprague-Dawley rats. It counts as in vivo. To be noted: male rats. The protocol:
Tablets with four types of different ingredients were made as follows: (1) 8.8 mg of vitamin B12, 35 mg of SNAC were weighed, thoroughly mixed and made into a tablet for dosing on rat; (2) 8.8 mg of vitamin B12, 35 mg of SNAC and 5 mg of Capmul PG-8 were weighed, thoroughly mixed and made into a tablet; (3) 8.8 mg of vitamin B12, 35 mg of SNAC and 0.9 mg of Providone were weighed, thoroughly mixed and made into a tablet. Each of the four processes was repeated to produce more tablets.
Male Sprague-Dawley rats (325-350 g) were dosed with vitamin B12 intravenously (0.5 mg/kg) alone, or orally with the tablets made in Example 4 at a dose of 50 mg/kg vitamin B12 alone or in combination with SNAC at 200 mg/kg. Blood samples were collected at 0, 3, 10, 20, 30, 60, 120, 240 and 360 minutes post dosing. Plasma samples were analyzed for B12 by RIA. The model independent PK metrics obtained following B12-SNAC combination were compared to those obtained following B12 alone.

Data set [2] can be described thus: Serum cyanocobalamin pharmacokinetics after dosing human subjects. It counts as in vivo. To be noted: healthy male subjects, fasted, single intravenous dose 1 mg cyanocobalamin, 4 subjects. Here is the method: Sixteen healthy male subjects were randomized to receive one of the following treatments: • (1) Treatment B: a single oral dose of cyanocobalamin/SNAC (5 mg cyanocobalamin/100 mg SNAC) administered in the fasted state as a tablet. (6 subjects); • (2) Treatment C: a single oral dose of cyanocobalamin alone (5 mg cyanocobalamin, VitaLabs, commercial) administered in the fasted state as a tablet. (6 subjects). • (3) Treatment D: a single intravenous dose of cyanocobalamin (1 mg cyanocobalamin) administered in the fasted state. (4 subjects). Each subject received a 1 mL intravenous injection of a 1 mg/mL (1000 μg/mL) solution resulting in a total dose of 1 mg cyanocobalamin.
The subjects were fasted overnight prior to dosing and had no liquids (including water) consumption for at least one hour before and after dosing. The oral forms of cyanocobalamin/SNAC tablets were administered in a single dose as tablets with 50 mL of plain water. Twenty-five blood samples were drawn for cyanocobalamin analyses at the following time points: within 30 minutes pre-dose and at Minutes 2, 5, 10, 20, 30, 40, 50, and at Hours 1, 1.5, 2, 3, 4, 5, 6, 7, 8, 9, 10, 11, 12, 14, 16, 20 and 24 post-dose.
Pharmacokinetic metrics was obtained following a model independent pharmacokinetic analysis of individual cyanocobalamin concentrations. Descriptive statistics was used to summarize the results.

Where [3] appears, read: IV, 0.5 mg/kg vitamin B12, N = 5.
Where [4] appears, read: PO tablet, 50 mg/kg vitamin B12 (alone or with 200 mg/kg SNAC), N = 5.

The source of these data is patent publication US8557792B2, “Method of treating vitamin B12 deficiency” (priority 2007, dated 2013).

Regarding Vitamin B12, the “AUC Mean” value turned out to be 65.84 µg·min/mL in data set [1] (setting [3]) and 28.72 µg·min/mL in data set [1] (setting [4]). Further, the “Tmax Mean” value in data set [1] (setting [3]) amounted to 4.4 min; in data set [1] (setting [4]), 52 min. For the same substance, the “Cmax Mean” value in data set [1] (IV, 0.5 mg/kg vitamin B12, plasma B12 by RIA, N = 5) is 2150 ng/mL; in data set [1] (PO tablet, 50 mg/kg vitamin B12 (alone or with 200 mg/kg SNAC), plasma B12 by RIA, N = 5) it was 140 ng/mL. Besides, the “Mean Bioavailability” value in data set [1] (PO tablet, 50 mg/kg vitamin B12 (alone or with 200 mg/kg SNAC), versus IV) is listed as 0.42%.

In the case of cyanocobalamin, in data set [2], the “Mean B12 peak concentration (Cmax)” value worked out at 221.287 ± 80.248 ng/mL and the “mean AUClast (0-24)” value came to 215.391 ± 44.602 ng·h/mL.
